What all share (type): cell-based, human
For assay [1], the system named is Src-TQ/YF expressing cell line ZM170.21. Nature of the assay: Suppression of tet-induced phenotype changes (cell scattering) in suspension, Ultra Low Attachment plates. As to conditions: ZM170.21 (Src-TQ/YF) in suspension, Ultralow Attachment Plates. The protocol:
(§1) Cells were seeded into 24-well or 96-well "Ultra Low Attachment" plates (cat.no.: 3473, Costar Corning Corp., Acton, MA, USA). These plates are coated with a covalently bound hydrogel layer that prevents cellular attachment to the polystyrene surface of the wells. As the cells were not attached to these wells, a medium change was impossible here. However, the phenotypes were tested in full serum-containing medium in the absence or presence of EGF, PDGF-BB or HGF as detailed above. Tet-induction was also started the day after seeding.
(§2) Largely irrespective of the cell numbers per well, the cells of all cell lines were in suspension and formed one or few very condensed/compact, opaque, rod-, disc- or kidney-shaped aggregates with a smooth surface, in which individual cells could not be discerned. Phenotype changes became apparent ~24 h after tet induction in ZM77 and ZM170 cell lines only, and Δpt(-tet →+tet)max was reached after ~2 days. In these cell lines Src-YF or Src-TQ/YF expression, respectively, induces scattering of the cells. Many cells are floating in the medium individually or in small clusters and the remaining large aggregate(s) are irregular-shaped and rather loose than compact; individual cells can easily be discerned and thus, the surfaces of these aggregates are rough as with bunches of grapes (Fig.14a,b). This biological response was readily observed with or without any of the above growth factors, wherefore normal growth medium without any additional growth factor was subsequently used in this assay type.
(§3) To that end, the test compounds PP1-Chr., SU6656 and PP2 were individually added to the cells together with tet, and the development of the phenotype changes in the presence of these compounds was monitored subsequently in direct comparison with tet-induced cells that received no compound (Fig.14c-j). The compounds were also added to the cells without tet-induction of Src/ Src mutant expression as controls for non-specific/ toxicity effects. The experiments were performed with several ZM77 cell lines.

The subject of assay [2] is Src-YF expressing ZM77 cell lines. Described as above. As to conditions: Ultralow Attachment Plates. The protocol:
as §1, §2, §3

Assay [3] deals with Src-TQ expressing ZM78 cell lines. The assay can be described thus: Suppression of tet-induced phenotype changes, evaluated by eye/microscope, normal cell culture plates. As to conditions: adherent. On the procedure: (§4) Phenotype changes -tet → +tet were evaluated in 24-well plates (Nunc; cat.no. 143982) under the following several different growth conditions to identify the strongest possible response (Δpt(-tet→+tet)max) 1. full (10% serum containing) growth medium a) without any growth factor supplement (-), b) with epidermal growth factor (EGF; 100ng/ml) (cat.no. 115, Research Diagnostics Inc. (RDI), Flanders, NJ, USA) or c) platelet derived growth factor type BB (PDGF-BB; 30ng/ml) (cat.no. 114b, RDI) or d) hepatocyte growth factor (HGF; 20ng/ml) (RDI, cat.no.300-010), or 2. serum-free medium a) - or b) +EGF or c) +PDGF or d) +HGF. In all cases, cells were first seeded into standard 24-well or 96-well plates (Nunc) in full growth medium. The cell number seeded per well was also varied to identify the most suitable cell densities producing Δpt(-tet→+tet)max. […]
(§5) To that end, the test compounds PP1-Chr., PP2 (cat.no. 529573, Calbiochem) and SU6656 (cat.no. 572635, Calbiochem) (see Fig.9p for chemical structures) were individually added to the cells together with tet, and the development of the phenotype changes in the presence of these compounds was monitored subsequently in direct comparison with cells that received no compound or only vehicle (0.2% DMSO) together with tet induction. […]

Assay [4] deals with Src-TQ/YF expressing ZM170 cell lines. Described as above. The following applies: adherent, PP1-Chr. and PP2 shown as combination 10µM + 5µM. On the procedure: as §4, §5
For assay [5], the system named is Src-KA expressing ZM76 cell lines. The assay is described as above. The following applies: adherent, serum-containing medium + EGF, PP1-Chr. and PP2 shown as combination. On the procedure:
as §4, §5

Each structure is given as a SMILES string.

As for `CC(C)(C)n1nc(-c2ccc(Cl)cc2)c2c(N)ncnc21` [PP2], the “suppression of tet-induced phenotype (cell scattering)” value in assay [1] is “largely ineffective”. In assay [2], the “suppression of tet-induced phenotype changes (cell scattering)” value is given as “partially suppressed”. The “suppression of tet-induced phenotype changes” value in assay [3] is “ineffective”; in assay [4], “ineffective”; in assay [5], “not able to suppress”.

These data come from patent publication EP1541694A1, “Methods of identifying, selecting and/or characterizing compounds which modulate the activity of a Src family kinase” (Sirenade Pharmaceuticals AG, priority 2003, dated 2005).
